Consider two compounds from patent US20240368560A1, “METHODS OF PRODUCING THREE-DIMENSIONAL CELLULAR TISSUES” (TOPPAN HOLDINGS INC., priority 2022, published 2024).

Common to all, as to assay type: cell-based, human
For assay [1], the system named is three-dimensional cellular tissue (NHDF, HUVEC, HCT15/β2m cells). The assay can be described thus: Bright-field observation of three-dimensional cellular tissue formation (Experimental Example 1). The settings on record: day 7 of culture; ascorbic acid 0, 0.05 or 0.1 mM; TGF-β 0, 0.1, 1, 5 or 10 ng/mL. How it is done: 1.0×10^6 cells of human neonatal dermal fibroblasts NHDF (product number “CC-2509”, Lonza) and 1.5×10^4 cells of human umbilical vein endothelial cells HUVEC (product number “C2517A”, Lonza) were suspended in a 50 mM tris-HCl buffer solution (pH 7.4) containing 0.1 mg/mL heparin (product number “H3149-100KU”, Sigma) and 0.1 mg/mL collagen (product number “ASC-1-100-100”, Sigma).
Then, the cell suspension was centrifuged at room temperature at 1,000×g (gravitational acceleration) for 2 minutes, and, after removing the supernatant, resuspended in 300 μL of general-purpose medium. Then, the obtained cell suspension was seeded inside a 24-well cell culture insert (product number “3470”, Corning Incorporated) coated with 0.1 mg/mL fibronectin in advance, with 1 mL of general-purpose medium added to the outside.
Then, the cell culture insert was centrifuged at room temperature at 400×g for 2 minutes, and then allowed to stand in a CO2 incubator (37° C., 5% CO2) for 2 hours. Then, 1 mL of general-purpose medium was added to the outside the cell culture insert, and the cells were cultured in a CO2 incubator (37° C., 5% CO2) for 24 hours (the time at which this culture was started is referred to as the culture start time).
The medium outside the cell culture insert was removed, and 1 mL of general-purpose medium was added. […]

Assay [2] shares this test system. The assay is described as follows: Formation of collagen, PSR staining (Experimental Example 1). The settings on record: ascorbic acid 0.1 mM, alone or with TGF-β 1 ng/mL. How it is done:
The medium inside and outside the above cell culture insert was removed, and 2 mL of general-purpose medium was added, using magnesium ascorbate phosphate (product number “013-12061”, FUJIFILM Wako Pure Chemical Corporation) and TGF-β (product number “209-16544”, FUJIFILM Wako Pure Chemical Corporation), with the ascorbic acid concentration being 0 mM, […], and the cells were cultured in a CO2 incubator (37° C., 5% CO2) for 3 days. Then, the medium inside and outside the culture insert was removed, and 2.3 mL of general-purpose medium was added with the ascorbic acid concentration being 0 mM, […], and the cells were cultured in a CO2 incubator (37° C., 5% CO2) for 3 days. On day 4 and day 7 of the culture, the obtained three-dimensional cellular tissue was washed twice with PBS, and […] of 10% formalin buffer solution (product number “062-01661”, FUJIFILM Wako Pure Chemical Corporation) was added to the cell culture insert, which was then allowed to stand for 15 minutes or more and washed three times with PBS to fix the three-dimensional cellular tissue. Then, the three-dimensional cellular tissue was removed from the cell culture insert, embedded in paraffin, and cut along a line passing through the center of gravity in a direction perpendicular to the top of the three-dimensional cellular tissue (top of the cell culture insert) to prepare a […] thin slice. […]

Assay [3] shares this test system. The assay is described as follows: Formation of collagen, PSR staining, timing of ascorbic acid addition (Experimental Example 2). The following applies: day 7 of culture. How it is done:
Preparation of stromal cells, seeding of cancer cells and lamination of stromal cells were performed in the same manner as in Experimental Example 1 except that 2.0×10^6 cells of human neonatal dermal fibroblasts NHDF were seeded, as NHDF, in a square dish (product number “166508”, Nunc) containing 90 mL of general-purpose medium or general-purpose medium containing 0.1 mM ascorbic acid, and cultured in a CO2 incubator (37° C., 5% CO2) for 24 hours.
Then, the medium inside and outside the cell culture insert was removed, and 2.3 mL of general-purpose medium or general-purpose medium containing 0.1 mM ascorbic acid was added, and the cells were cultured in a CO2 incubator (37° C., 5% CO2) for 3 days.
Subsequently, the medium inside and outside the culture insert was removed, and 2.3 mL of general-purpose medium or general-purpose medium containing 0.1 mM ascorbic acid was added, and the cells were cultured in a CO2 incubator (37° C., 5% CO2) for 3 days.
On day 7 of the culture, the three-dimensional cellular tissue was washed twice with PBS, and 300 μL of 10% formalin buffer solution (product number “062-01661”, FUJIFILM Wako Pure Chemical Corporation) was added to the cell culture insert, which was then allowed to stand for 15 minutes or more and washed three times with PBS to fix the three-dimensional cellular tissue. […]

Turning to `O=C1O[C@H]([C@@H](O)CO)C(O)=C1O` [ascorbic acid], the “formation of three-dimensional cellular tissue (microscopic observation)” value in assay [1] was “a three-dimensional cellular tissue was formed”. The “formation of collagen (PSR staining, PSR ratio)” value in assay [2] is “fiber-like collagen was formed”. The entries for the “formation of collagen (PSR staining)” value in assay [3] (0.1 mM ascorbic acid added after formation of the three-dimensional cellular tissue) and in assay [3] (0.1 mM ascorbic acid added to NHDF in advance (24 hours before tissue formation)) were “collagen was found to be formed” and “no change in formation of collagen”, respectively.
In the case of TGF-β, the “formation of three-dimensional cellular tissue (microscopic observation)” value in assay [1] is “the cellular tissue shrunk and became detached from the cell culture insert, and no three-dimensional cellular tissue was formed”.
